Several values for one entry are separate records, joined by “and”; a condition that tells them apart may be missing. Equal values may be shown once. Entries after “also recorded” stand apart in the source; their conditions may differ.
Legend:
[1] = test system: blood-platelets; details: literature, fragments of cow's CGP; cited from earlier work
[2] = test system: blood-platelets; details: literature, fragments of cow's CGP; same concentrations as the undecapeptide; cited from earlier work
[3] = test system: human blood-platelets; assay: aggregation of human blood-platelets caused by ADP; type: cell-based; parameters: key to Aggregation with ADP, concentration which induces 50% inhibition: --: No inhibition
From the text: (§1) More precisely, its activity upon the blood-platelet functions has been studied in vitro in relation to the inhibition of the aggregation of blood-platelets caused by ADP ("aggregation with ADP"), in relation to the inhibition of the attachment of fibrinogen to the blood-platelets caused by ADP ("attachment of fibrinogen with ADP"), in relation to the inhibition of the aggregation of blood-platelets caused by thrombin ("aggregation with thrombin") and in relation to the inhibition of the reaction caused by thrombin ("secretion reaction with thrombin") that is to say the release of one of the constituents of the dense granule (serotonin), evidence of blood-platelet activation.
(§2) These three products (κ-casein, κ-paracasein and CGP) have been tested upon the aggregation of human blood-platelets by ADP and by thrombin, upon the fixing of fibrinogen in the presence of ADP, and on the secretion reaction.

[4] = test system: human blood-platelets; assay: attachment of fibrinogen to the blood-platelets caused by ADP; type: cell-based; details: CGP at 250 μM
From the text: as §1, §2

[5] = test system: human blood-platelets; assay: aggregation of human blood-platelets caused by thrombin; type: cell-based
From the text: as §1, §2

[6] = test system: human blood-platelets; assay: secretion reaction with thrombin (release of serotonin from the dense granule); type: cell-based
From the text: as §1, §2

Row | IC50 ([5]; Table II, read-out: Aggregation with thrombin, concentration which induces 50% inhibition) [µM] | IC50 ([5]; read-out: CI50, aggregation with thrombin) | IC50 ([6]; Table II, read-out: Secretion reaction with thrombin, concentration which induces 50% inhibition) [µM] | IC50 ([6]; read-out: CI50, secretion reaction with thrombin) | Substance | inhibition of blood-platelet aggregation in vitro [1] | inhibition of the attachment of fibrinogen to the blood-platelets in vitro [2] | CI50, aggregation with ADP [3] | Aggregation with ADP, concentration which induces 50% inhibition ([3]; Table II) | inhibition of fibrinogen attachment with ADP [4]
1 |  |  |  |  | heptapeptide containing the residues 106→112: fragment 106→112 of cow's κ-caseinoglycopeptide, by trypsin digestion of CGP or by synthesis (MAIPPKK; UniProt P02668 127-133, looked up, fragment) | non-inhibiting | none of these peptides inhibit |  |  | 
2 |  |  |  |  | tetrapeptide containing the residues 113→116: fragment 113→116 of cow's κ-caseinoglycopeptide, by trypsin digestion of CGP or by synthesis (NQDK; UniProt P02668 134-137, looked up, fragment) | inhibits only very slightly | none of these peptides inhibit |  |  | 
3 | 10 | 10 µM and ~10 µM | 10 | 10 µM and ~10 µM | κ-casein: cow's milk protein that under chymosin yields κ-paracasein and CGP; comparator |  |  | inactive; also recorded: inhibits neither | -- | inhibits neither
